US20130090329A1, “Methods and Compositions for the Treatment of Psychotic Disorders Through the Identification of the Olanzapine Poor Response Predictor Genetic Signature” (SUREGENE, LLC, priority 2011, published 2013)
Marks after values point to notes of the source that are not given here.

How the values were obtained:
[1] = among antipsychotic medications; cited from earlier work
[2] = tested on: patients suffering from schizophrenia and related disorders; experiment: CATIE study: percent change in total PANSS from baseline to LOCF, segmented by OPRP genetic signature status; assay type: in vivo, human; settings: for Effect size (mean difference / standard deviation): CATIE
Source text: Genotype and phenotype data for the CATIE trial were recently made available to qualified researchers through the NIMH Center for Collaborative Genetic Studies on Mental Disorders. The sample consisted of a total of 738 patients. For the present study, the inventors assigned OPRP status to 628 subjects, including 411 subjects of self-reported European ancestry and 217 subjects of self-reported African ancestry. Further details on the patient population are described in the study by Sullivan and coworkers (Sullivan et al., 2008). The CATIE SNP genotype data evaluated included a total of 492,900 SNPs located throughout the genome.
The design of the CATIE study has been described in detail by others (Lieberman et al., 2005; Stroup et al., 2003). […] Subjects that failed Phase I treatment with the typical antipsychotic perphenazine were treated differently than those subjects that failed phase I treatment with an atypical antipsychotic. Instead of entering into Phase II of the trial, subjects who switched from perphenazine entered Phase IB. […] Subjects who failed Phase IB then entered Phase II.
(§1) A total of 738 subjects consented to provide DNA for genetic study. […] Only retrospective genetic analyses, judged to be exempt from human studies requirements by an IRB, were conducted in the current study. For the genetic analyses presented herein, the inventors combined and evaluated drug response data for both Phase I and Phase IB of the CATIE study. All tested patients were studied using well established clinical endpoints comparing baseline, intermediate, and last observation carried forward (LOCF) for the PANSS scores using CATIE data. LOCF analysis is a commonly used clinical endpoint for clinical trials for neuropsychiatric drugs, with particular changes in PANSS scores being used to indicate clinically significant response (Leucht et al., 2009).
Using the clinical data from the CAIE trial, the inventors derived several different metrics used for quantifying response in clinical trials of antipsychotic medications. The most commonly used psychometric instrument is the Positive and Negative Syndrome Scale (PANSS), a 30-item semi-quantitative instrument scored by clinical professionals (Kay et al., 1987). The greater the decrease in PANSS score, the better the clinical response. The most direct measure of clinical response is absolute change in PANSS score. In addition to absolute change, the improvement is often reported as a percentage change from baseline PANSS score.
To examine the relationship of genotypes to drug response the inventors used the publically available PLINK software (Purcell et al., 2007; available on the world wide web at pngu.mgh.harvard.edu/purcell/plink/) and Helix tree (Version 6.4.1; Golden Helix, Bozeman, Mont.). The inventors used Last observation Carry Forward (LOCF) delta PANSS values as a measure of response to antipsychotic treatment. […] The inventors refined the test further by conducting association analysis on using only those subjects that comprised the TT genotype of rs11960832.
As mentioned previously, the mean change in absolute or percent PANSS provides an important measure of efficacy in patients undergoing antipsychotic treatments. Indeed, many pivotal trials in the psychosis field used absolute and/or percentage change in PANSS Score as the primary endpoint (Leucht et al., 2009).

[3] = tested on: patients suffering from schizophrenia and related disorders; experiment: CATIE study: worsening of symptoms (LOCF delta PANSS ≧0%) by OPRP status; assay type: in vivo, human; settings: for Worsening: delta PANSS ≧0%
Method: as §1
The inventors also examined the impact of the OPRP status on whether patients' symptoms actually got worse when treated with olanzapine. This is an important safety consideration for antipsychotic drugs response, and failure of a drug to display the desired clinical response on a specific subset of patients could impact the drug label, being contraindicated for a particular subset of patients (see Example 5: “Risk Management Involving the OPRP Genetic Test). […]

psychopathology (PANSS) [4] = settings: meta-analysis, population not segmented by OPRP; negative = greater reduction in PANSS; cited from earlier work
[5] = tested on: patients suffering from schizophrenia and related disorders; experiment: CATIE study: categorical responders (change in total PANSS ≦−10%, LOCF) by OPRP status; assay type: in vivo, human; settings: for Responders: change in total PANSS ≦−10%
Method: A total of 738 subjects consented to provide DNA for genetic study. Details regarding SNP genotyping and quality control have been recently published (Sullivan et al., 2008). Only retrospective genetic analyses, judged to be exempt from human studies requirements by an IRB, were conducted in the current study. For the genetic analyses presented herein, the inventors combined and evaluated drug response data for both Phase I and Phase IB of the CATIE study. All tested patients were studied using well established clinical endpoints comparing baseline, intermediate, and last observation carried forward (LOCF) for the PANSS scores using CATIE data. LOCF analysis is a commonly used clinical endpoint for clinical trials for neuropsychiatric drugs, with particular changes in PANSS scores being used to indicate clinically significant response (Leucht et al., 2009). […] As described above CATIE patients were studied using well established clinical endpoints comparing baseline, intermediate, and last observation carried forward (LOCF) for the PANSS scores.

psychopathology (PANSS) [6] = settings: weighted mean difference in PANSS score (absolute); negative = olanzapine superior; cited from earlier work
psychopathology = settings: meta-analysis, Davis et al. (2003); cited from earlier work
[7] = Caucasian patients, OPRP Negative, LOCF
[8] = Caucasian patients, OPRP Positive, LOCF
[9] = OPRP Negative subjects, CATIE Phase I and IB, more negative = greater improvement
[10] = OPRP Positive subjects, CATIE Phase I and IB, more negative = greater improvement
[11] = comparator = OPRP positive subjects treated with the labelled drug, positive = poorer response to olanzapine
[12] = olanzapine OPRP positive versus labelled drug OPRP positive

Row | Structure (SMILES) | Incidence of metabolic side-effects [1] | Effect Size vs. Placebo (psychopathology (PANSS) [4]) | Number of individuals with change in total PANSS ≦−10% (responders) ([5]; OPRP Negative) | Number of individuals with change in total PANSS ≧−10% (non-responders) ([5]; OPRP Negative) | Responders ([5]; OPRP Negative) | Number of individuals with change in total PANSS ≦−10% (responders) ([5]; OPRP Positive) | Number of individuals with change in total PANSS ≧−10% (non-responders) ([5]; OPRP Positive) | Responders ([5]; OPRP Positive) | Mean difference between olanzapine and labelled atypical antipsychotic, Meta-analysis (psychopathology (PANSS) [6]) | DELTA PANSS % (mean change in PANSS score from baseline to LOCF) [2, 9] | DELTA PANSS % (mean change in PANSS score from baseline to LOCF) [2, 10] | Mean difference in delta PANSS: olanzapine-treated OPRP positive group minus comparator group [2, 11] | Effect size (mean difference / standard deviation) [2, 12] | Number of individuals with delta PANSS ≦0% (non-worsening) ([3]; OPRP Negative, LOCF) | Number of individuals with delta PANSS ≧0% (worsening symptoms) ([3]; OPRP Negative, LOCF) | Worsening ([3]; OPRP Negative, LOCF) | Number of individuals with delta PANSS ≦0% (non-worsening) ([3]; OPRP Positive, LOCF) | Number of individuals with delta PANSS ≧0% (worsening symptoms) ([3]; OPRP Positive, LOCF) | Worsening ([3]; OPRP Positive, LOCF) | other results
1 | CN1CCN(C2=Nc3cc(Cl)ccc3Nc3ccccc32)CC1 [Clozapine] | greatest incidence of metabolic side-effects | – | – | – | – | – | – | – | – | – | – | – | – | – | – | – | – | – | – | DELTA PANSS % (mean change in PANSS score from baseline to LOCF) ([2]; Caucasian subjects, OPRP Negative): −13.1%; DELTA PANSS % (mean change in PANSS score from baseline to LOCF) ([2]; Caucasian subjects, OPRP Positive): 28%; Number of individuals with delta PANSS ≦0% (non-worsening) [3, 7]: 25; Number of individuals with delta PANSS ≧0% (worsening symptoms) [3, 7]: 9; Worsening ([3]; Caucasian patients, OPRP Negative): 26%*; Number of individuals with delta PANSS ≦0% (non-worsening) [3, 8]: 0; Number of individuals with delta PANSS ≧0% (worsening symptoms) [3, 8]: 2; Worsening ([3]; Caucasian patients, OPRP Positive): 100%
2 | O=C1Cc2cc(CCN3CCN(c4nsc5ccccc45)CC3)c(Cl)cc2N1 [Ziprasidone] | – | −0.48 | 16 | 53 | 23%^++++ | 2 | 9 | 18% | −8.3 | −1.5^++++ % | −0.5% | 4.8 | 0.2^b | 35 | 34 | 49%^++++ | 7 | 4 | 36% | Effect Size vs. FGA (first generation antipsychotics) (psychopathology): −0.04; Mean difference between olanzapine and labelled atypical antipsychotic, CATIE OPRP− ([2]; OPRP negative subjects, delta PANSS, negative = olanzapine superior): −10.1; Mean difference between olanzapine and labelled atypical antipsychotic, CATIE unsegemented ([2]; delta PANSS, negative = olanzapine superior): −4.9; Effect size (mean difference / standard deviation) ([2]; olanzapine OPRP positive versus labelled drug OPRP positive, listed as ziprasidone): 0.2
3 | Cc1cc2c(s1)Nc1ccccc1N=C2N1CCN(C)CC1 [Olanzapine] | greatest incidence of metabolic side-effects | – | 73 | 66 | 53%* | 1 | 25 | 4% | – | −11.6% | 4.3% | – | – | 113 | 26 | 19%* | 8 | 18 | 69% | Effect size, olanzapine-treated OPRP positive patients compared to various other OPRP-drug combinations ([2]; CATIE study, range over comparisons): 0.2 to 1.0; Mean difference in delta PANSS: olanzapine-treated OPRP positive group minus comparator group ([2]; comparator = olanzapine-treated OPRP negative subjects): 15.9; Effect size (mean difference / standard deviation) ([2]; olanzapine OPRP positive versus olanzapine OPRP negative): 1.0^a; Effect size (mean difference / standard deviation) ([2]; olanzapine OPRP positive versus olanzapine OPRP negative, listed as olanzapine): 1.0
4 | Cc1nc2n(c(=O)c1CCN1CCC(c3noc4cc(F)ccc34)CC1)CCCC2 [Risperidone] | – | −0.59 | 55 | 91 | 38%^+ | 7 | 12 | 35%^ | −1.9 | – | – | – | – | 91 | 55 | 38%^+++ | 13 | 7 | 35%^ | –
5 | OCCN1CCN(CCCN2c3ccccc3Sc3ccc(Cl)cc32)CC1 [Perphenazine] | – | – | 39 | 71 | 35%^+ | 5 | 7 | 42%^^ | – | −4.2^+++ % | −7.7^ % | 12 | 0.7 | 65 | 45 | 41%^+++ | 9 | 3 | 25%^ | –
